Laboratory results reported in patent US20130310306A1, “HUMAN LACTOFERRIN DERIVED PEPTIDES AND THEIR USE” (PharmaSurgics In Sweden AB, priority 2011, published 2013).
Entries after “also recorded” stand apart in the source; their conditions may differ.

Experiments:
MRSA (CCUG 41879) [1] = test: MMC99 assay, MRSA; type: cell-based, methicillin resistant S. aureus; details: Table 8A
Protocol: (§1) The antimicrobial effects of the peptide 265 (SEQ ID NO: 27) was analysed by MMC99 (minimal microbicidal concentration) assay against S. aureus (CCUG 1800), MRSA (CCUG 41879), P. aeruginosa (ATCC 15442), E. coli (CCUG 31246), S. pyogenes (CCUG 4207), P. acnes (CCUG 1794T), S. epidermidis (ATCC12228), K. pneumoniae (ATCC 13883), A. baumannii (ATCC 19606), and C. albicans (ATCC 64549). The peptides were purchased from Biopeptide Company (San Diego, Calif., USA) and Bachem AG (Bubendorf, Switzerland) and results are presented in Table 8A and 8B respectively.
(§2) Peptide was serially diluted in two different assay medium, 1% BHI medium (brain-heart infusion medium) or 50% heat inactivated simulated wound fluid (SWF), and thereafter incubated with the microorganisms for 2 hours. Drops of the suspension were placed on blood agar plates. The MMC99 values, i.e. the lowest peptide concentration needed to achieve a 99% reduction of viable microorganisms, were recorded. As presented in Table 8, the peptide has the ability to kill microorganisms frequently appearing in infections.

[2] = test system: K. pneumoniae (ATCC 13883); test: MMC99 assay, K. pneumoniae; type: cell-based; details: Table 8B
Protocol: as §1, §2

P. acnes (CCUG 1794T) = test: MMC99 assay, P. acnes; type: cell-based; details: Table 8A
Protocol: as §1, §2

MRSA (CCUG 41879) [3] = test: In vivo antimicrobial effect in excision wound model in rats; parameters: species or system rat; details: peptide in H2O 0.1, 0.5 and 2 mg/ml, single administration, two hours, vs control (H2O)
Text: (§3) FIG. 4. Dose-response effect of peptide 265 (A) on bacterial colonization of infected excision wounds in rats. […] Results are presented as relative bacterial survival (%) compared to control group ±SEM (n=15 wounds). Statistical significance was estimated by Student's t test. *=p<0.05, **=p<0.01, ***=p<0.001.
The in vivo antimicrobial effects of the peptide 265 (SEQ ID NO: 27) was investigated in an excision wound model in rats. The wounds were inoculated with methicillin resistant S. aureus (MRSA) for two hours, followed by a single administration of peptide or control (H2O) for two hours before termination and harvest of the bacteria.

S. aureus (CCUG 1800) = test: Minimal microbicidal concentration (MMC99) assay, S. aureus; type: cell-based
Protocol: Antimicrobial Activity was Measured as Bactericidal Effect on S. Aureus Using Minimal Microbicidal Concentration, MMC99, Assay)
S. aureus (#1800; CCUG, Gothenburg, Sweden) cultured on blood-agar plates [Columbia agar (Oxoid, Basingstoke, UK) supplemented with 5% defibrinated horse blood (National Veterinary Institute (SVA), Uppsala, Sweden)] were transferred to brain heart infusion broth (3.7% BHI; Difco, BD Diagnostics, Franklin Lakes, N.J., USA) and incubated in a shaker at 250 rpm+37° C. over night. The culture was thereafter be diluted 1:10 in fresh BHI broth and incubated for additional two hours to reach log-phase growth. The bacteria were pelleted and suspended in 1% BHI medium (BHI broth diluted 100 times in ultra-pure water) to a concentration of 10^7 bacteria/ml as estimated by measuring optical density at 600 nm. Peptides were serially diluted by two-fold steps from 160 μM to 1.25 μM in 1% BHI medium. The peptides (100 μl) were thereafter incubated with bacteria (5 μl á 10^7 bact./ml) for 2 hours at +37° C. Drops (5 μl) of the suspension were placed on blood agar plates. The blood agar plates were incubated over night at +37° C. The MMC99 values, i.e. the lowest peptide concentration needed to achieve a 99% reduction of viable bacteria, were recorded (Table 3). The concentration of the bacterial suspension used in the assay was confirmed by viable counts on blood agar plates.
S. aureus (#1800; CCUG, Gothenburg, Sweden) cultured on blood-agar plates [Columbia agar (Oxoid, Basingstoke, UK) supplemented with 5% defibrinated horse blood (National Veterinary Institute (SVA), Uppsala, Sweden)] were transferred to brain heart infusion broth (3.7% BHI; Difco, BD Diagnostics, Franklin Lakes, N.J., USA) and incubated in a shaker at 250 rpm+37° C. over night. The culture was thereafter be diluted 1:10 in fresh BHI broth and incubated for additional two hours to reach log-phase growth. The bacteria were pelleted and suspended in 1% BHI medium (BHI broth diluted 100 times in ultra-pure water) to a final concentration of 10^7 bacteria/ml as estimated by measuring optical density at 600 nm. Peptides were serially diluted by two-fold steps from 400 μM to 0.78 μM in either 1% BHI medium or in 50% heat inactivated simulated wound fluid [SWF, containing 1 part 0.1% peptone (Oxoid, Basingstoke, UK) in saline and 1 part fetal bovine serum, diluted 2 times in ultra-pure water].
The peptides (100 μl) were thereafter incubated with bacteria (5 μl á 10^7 bact./ml) for 2 hours at +37° C. Drops (5 μl) of the suspension were placed on blood agar plates. The blood agar plates were incubated over night at +37° C. The MMC99 values, i.e. the lowest peptide concentration needed to achieve a 99% reduction of viable bacteria were recorded (Table 6). The concentration of the bacterial suspension used in the assay was confirmed by viable counts on blood agar plates.
as §1, §2

E. coli (CCUG 31246) = test: MMC99 assay, E. coli; type: cell-based; details: Table 8A
Protocol: as §1, §2

[4] = test system: S. epidermidis (ATCC12228); test: MMC99 assay, S. epidermidis; type: cell-based; details: Table 8B
Protocol: as §1, §2

C. albicans (ATCC 64549) = test: MMC99 assay, C. albicans; type: cell-based; details: Table 8B
Protocol: as §1, §2

[5] = test system: TNF-α production in LPS stimulated THP-1 cells; test: Inhibition of TNF-α production in LPS stimulated THP-1 cells (ELISA); details: screen 2, mean relative secretion
S. aureus = test: Antimicrobial effect in infected wounds, ex vivo model on pig skin; details: S. aureus in PBS/serum (50/50); peptide in H2O 0.1, 0.5 and 2 mg/ml, single administration, four hours; vs placebo (H2O)
Text: as §3, with “5. Dose response” for “4. Dose-response”, “(A),” for “(A)”, “infected” for “infected excision”, “pig skin.” for “rats.”, “(n=10” for “(n=15”
The antimicrobial effects of the peptide 265 (SEQ ID NO: 27) was investigated in an ex vivo model on pig skin. The wounds were inoculated with S. aureus in the presence of PBS/Serum 50/50. Two hours after inoculation the wounds were treated with a single administration of the peptide or placebo (H2O). Four hours after the treatment bacteria were harvested and viable counts of each wound were determined.

[6] = test system: A. baumannii (ATCC 19606); test: MMC99 assay, A. baumannii; type: cell-based; details: Table 8B
Protocol: as §1, §2

[7] = test system: P. aeruginosa (ATCC 15442); test: MMC99 assay, P. aeruginosa; type: cell-based; details: Table 8A
Protocol: as §1, §2

S. pyogenes (CCUG 4207) = test: MMC99 assay, S. pyogenes; type: cell-based; details: Table 8A
Protocol: as §1, §2

Sequence: FRQWKRWMRKVFHSWRRW [Peptide 265]
- MMC99 MRSA 1% BHI (MRSA (CCUG 41879) [1]; 1% BHI): 6 µg/mL
- MMC99 MRSA 50% SWF (MRSA (CCUG 41879) [1]; 50% SWF): 50 µg/mL
- MMC99 K. pneumoniae 1% BHI ([2]; 1% BHI): 3 µg/mL
- MMC99 K. pneumoniae 50% SWF ([2]; 50% SWF): 25 µg/mL
- MMC99 P. acnes 1% BHI (P. acnes (CCUG 1794T); 1% BHI): <3 µg/mL
- MMC99 P. acnes 50% SWF (P. acnes (CCUG 1794T); 50% SWF): 50 µg/mL
- bacterial colonization of infected excision wounds in rats (MRSA (CCUG 41879) [3]): significant reduction in bacterial counts in a dose response fashion; also recorded: pronounced antimicrobial effect
- MMC99 S. aureus 1% BHI (S. aureus (CCUG 1800); 1% BHI, Table 8A): 4 µg/mL
- MMC99 S. aureus 50% SWF (S. aureus (CCUG 1800); 50% SWF, Table 8A): 8 µg/mL
- MMC99 μM in 1% BHI medium (S. aureus (CCUG 1800); screen 2, 1% BHI medium, 2 hours): 6.25 µM
- MMC99 μM in 50% SWF (S. aureus (CCUG 1800); screen 2, 50% heat inactivated simulated wound fluid, 2 hours): 12.5 µM
- MMC99 E. coli 1% BHI (E. coli (CCUG 31246); 1% BHI): 5 µg/mL
- MMC99 E. coli 50% SWF (E. coli (CCUG 31246); 50% SWF): 67 µg/mL
- MMC99 S. epidermidis 1% BHI ([4]; 1% BHI): <2 µg/mL
- MMC99 S. epidermidis 50% SWF ([4]; 50% SWF): 6 µg/mL
- MMC99 C. albicans 1% BHI (C. albicans (ATCC 64549); 1% BHI): 6 µg/mL
- MMC99 C. albicans 50% SWF (C. albicans (ATCC 64549); 50% SWF): 100 µg/mL
- TNF-α at 40 μM peptide ([5]; stimulated level without peptide = 100%, basal = 0%, 40 μM peptide): 13.8%
- TNF-α at 4 μM peptide ([5]; 4 μM peptide): 87.0%
- TNF-α at 10 μM peptide ([5]; 10 μM peptide): 31.1%
- bacterial colonization of infected wounds in pig skin (S. aureus): significant reduction in bacterial counts with a dose response relation; also recorded: highly effective
- MMC99 A. baumannii 1% BHI ([6]; 1% BHI): <2 µg/mL
- MMC99 A. baumannii 50% SWF ([6]; 50% SWF): 12 µg/mL
- MMC99 P. aeruginosa 1% BHI ([7]; 1% BHI): 4 µg/mL
- MMC99 P. aeruginosa 50% SWF ([7]; 50% SWF): 134 µg/mL
- MMC99 S. pyogenes 1% BHI (S. pyogenes (CCUG 4207); 1% BHI): <3 µg/mL
- MMC99 S. pyogenes 50% SWF (S. pyogenes (CCUG 4207); 50% SWF): 25 µg/mL
